What was measured:
[1] = Inhibition of LPS-induced NF-kappaB transcriptional activity in mouse RAW264.7 cells; type: cell-based
[2] = system: RAW264.7; test: Inhibition of LPS-induced NF-kappaB transcriptional activity in mouse RAW264.7 cells at 100 uM; type: cell-based
[3] = system: PC-3; test: Cytotoxicity against human PC3 cells; type: functional
[4] = system: NCI-H23; test: Cytotoxicity against human NCI-H23 cells; type: functional
[5] = system: NUGC-3; test: Cytotoxicity against human NUGC3 cells; type: functional
[6] = system: HCT-15; test: Cytotoxicity against human HCT15 cells; type: functional
[7] = system: ACHN; test: Cytotoxicity against human ACHN cells; type: functional
[8] = system: MDA-MB-231; test: Cytotoxicity against human MDA-MB-231 cells; type: functional

| IC50 [1] [µM] | Compound | inhibition [2] [%] | GI50 [3] [µM] | GI50 [4] [µM] | GI50 [5] [µM] | GI50 [6] [µM] | GI50 [7] [µM] | GI50 [8] [µM] |
| --- | --- | --- | --- | --- | --- | --- | --- | --- |
| > 100 | COc1ccc(OC)c(NC(=O)C2Cc3ccccc3N2)c1 (stereo not given) | 47 | – | – | – | – | – | – |
| 85 | Cc1cc(C)cc(NC(=O)C2Cc3ccccc3N2)c1 (stereo not given) | 56 | – | – | – | – | – | – |
| 16.6 | Cc1cc(C)cc(NC(=O)C2Cc3ccccc3N2C(=O)OC(C)(C)C)c1 (stereo not given) | 78 | – | – | – | – | – | – |
| > 100 | Cc1cccc(NC(=O)C2Cc3ccccc3N2)c1 (stereo not given) | 29 | – | – | – | – | – | – |
| – | CC(C)(C)OC(=O)N1c2ccccc2CC1C(=O)Nc1ccccc1[N+](=O)[O-] (stereo not given) | 63 | – | – | – | – | – | – |
| – | COc1cccc(NC(=O)C2Cc3ccccc3N2)c1 (stereo not given) | 64 | – | – | – | – | – | – |
| 14.9 | CC(C)(C)OC(=O)N1c2ccccc2CC1C(=O)Nc1cc(C(F)(F)F)cc(C(F)(F)F)c1 (stereo not given) | – | 0.838 | 1.52 | – | – | – | – |
| 40.1 | COc1cc2c(cc1O)CCC(C(=O)Nc1ccccc1)O2 (stereo not given) | 90 | – | 9.32 | – | – | – | – |
| 12.7 | CC(C)(C)C(=O)N1c2ccccc2CC1C(=O)Nc1ccc(C(F)(F)F)cc1 (stereo not given) | – | 3.89 | 3.65 | 6.58 | 5.54 | 5.63 | 7.31 |
| – | O=C(Nc1cccc(Cl)c1)C1Cc2ccccc2N1 (stereo not given) | 63 | – | – | – | – | – | – |
| – | COc1ccccc1NC(=O)C1Cc2ccccc2N1C(=O)OC(C)(C)C (stereo not given) | 76 | – | – | – | – | – | – |
| > 100 | Cc1ccc(NC(=O)C2Cc3ccccc3N2C(=O)OC(C)(C)C)cc1 (stereo not given) | 37 | – | – | – | – | – | – |
| 50 | Cc1ccc(C)c(NC(=O)C2Cc3ccccc3N2C(=O)OC(C)(C)C)c1 (stereo not given) | 75 | – | – | – | – | – | – |
| – | COc1cccc2c1C(=O)c1c(O)c3c(c(O)c1C2=O)C[C@@](O)(C(=O)CO)C[C@@H]3O[C@H]1C[C@H](N)[C@H](O)[C@H](C)O1 [DOXORUBICIN] | – | 0.317 | 0.178 | 0.202 | 2.18 | 0.182 | 0.194 |
| 34.1 | CC(=O)N1c2ccccc2CC1C(=O)Nc1cc(Cl)cc(Cl)c1 (stereo not given) | – | 6.37 | 7.68 | 7.86 | 8.68 | > 10 | > 10 |
| > 100 | Cc1ccc(S(=O)(=O)N2c3ccccc3CC2C(=O)Nc2cc(Cl)cc(Cl)c2)cc1 (stereo not given) | – | > 10 | 7.53 | > 10 | > 10 | > 10 | > 10 |
| > 100 | O=C(Nc1ccccc1O)C1Cc2ccccc2N1 (stereo not given) | 37 | – | – | – | – | – | – |
| > 100 | Cc1ccc(C)c(NC(=O)C2Cc3ccccc3N2)c1 (stereo not given) | 47 | – | – | – | – | – | – |
| 46 | O=C(Nc1cccc(C(F)(F)F)c1)C1Cc2ccccc2N1 (stereo not given) | 99 | 4.24 | 4.96 | – | – | – | – |
| 13.5 | O=C(Nc1ccc(C(F)(F)F)cc1)C1Cc2ccccc2N1C(=O)c1ccccc1 (stereo not given) | – | – | 4.58 | 8.72 | 5.49 | – | – |
| 45.9 | CC(C)(C)OC(=O)N1c2ccccc2CC1C(=O)Nc1cc(Cl)ccc1Cl (stereo not given) | 71 | – | – | – | – | – | – |
| 12.6 | CC(C)(C)OC(=O)N1c2ccccc2CC1C(=O)Nc1ccc(Cl)c(Cl)c1 (stereo not given) | 97 | 4.66 | 3.19 | – | – | – | – |
| 12.6 | CCCCCCCCC(=O)N1c2ccccc2CC1C(=O)Nc1cc(Cl)cc(Cl)c1 (stereo not given) | – | 1.61 | 1.28 | 1.52 | 1.73 | 1.89 | 3.57 |
| – | Cc1cccc(NC(=O)C2Cc3ccccc3N2C(=O)OC(C)(C)C)c1 (stereo not given) | 87 | – | – | – | – | – | – |

| IC50 [1] [µM] | Compound | inhibition [2] [%] | GI50 [3] [µM] | GI50 [4] [µM] | GI50 [5] [µM] | GI50 [6] [µM] | GI50 [7] [µM] | GI50 [8] [µM] |
| --- | --- | --- | --- | --- | --- | --- | --- | --- |
| > 100 | CC(=O)N1c2ccccc2CC1C(=O)Nc1ccc(C(F)(F)F)cc1 (stereo not given) | – | > 10 | > 10 | > 10 | > 10 | > 10 | > 10 |
| > 100 | O=C(Nc1ccc([N+](=O)[O-])cc1)C1Cc2ccccc2N1 (stereo not given) | 41 | – | – | – | – | – | – |
| 66.2 | O=C(Nc1ccc(O)cc1)C1Cc2ccccc2N1 (stereo not given) | 63 | – | – | – | – | – | – |
| > 100 | CCCCCCCCC(=O)N1c2ccccc2CC1C(=O)Nc1ccc(C(F)(F)F)cc1 (stereo not given) | – | 1.86 | 1.62 | 3.45 | 2.07 | 3.78 | > 10 |
| 52.2 | COc1ccc(NC(=O)C2Cc3ccccc3N2C(=O)OC(C)(C)C)cc1OC (stereo not given) | 65 | – | – | – | – | – | – |
| – | CC(C)(C)OC(=O)N1c2ccccc2CC1C(=O)Nc1ccc([N+](=O)[O-])cc1 (stereo not given) | > 100 | 2.79 | 2.52 | – | – | – | – |
| – | O=C(Nc1ccc(Cl)c(Cl)c1)C1Cc2ccccc2N1 (stereo not given) | 72 | – | 11.6 | – | – | – | – |
| – | COc1cc(NC(=O)C2Cc3ccccc3N2C(=O)OC(C)(C)C)cc(OC)c1 (stereo not given) | 88 | – | – | – | – | – | – |
| > 100 | O=C(Nc1cccc(O)c1)C1Cc2ccccc2N1 (stereo not given) | 30 | – | – | – | – | – | – |
| 5.9 | CC(NC(=O)OC(C)(C)C)C(=O)N1c2ccccc2CC1C(=O)Nc1cc(Cl)cc(Cl)c1 (stereo not given) | – | 4.43 | 6.71 | 6.21 | 4.33 | 5.04 | – |
| – | CC(C)(C)OC(=O)N1c2ccccc2CC1C(=O)Nc1cccc(Cl)c1 (stereo not given) | > 100 | – | 3.23 | – | – | – | – |
| 71.6 | O=C(Nc1ccccc1)C1Cc2ccccc2N1 (stereo not given) | 65 | – | – | – | – | – | – |
| > 100 | CC(C)(C)OC(=O)N1c2ccccc2CC1C(=O)Nc1ccccc1C(F)(F)F (stereo not given) | 38 | – | – | – | – | – | – |
| > 100 | O=C(Nc1cc(Cl)ccc1Cl)C1Cc2ccccc2N1 (stereo not given) | 34 | – | – | – | – | – | – |
| > 100 | O=C(Nc1ccccc1[N+](=O)[O-])C1Cc2ccccc2N1 (stereo not given) | 41 | – | – | – | – | – | – |
| > 100 | Cc1ccc(NC(=O)C2Cc3ccccc3N2)cc1 (stereo not given) | 41 | – | – | – | – | – | – |
| > 100 | COc1ccc(NC(=O)C2Cc3ccccc3N2)cc1 (stereo not given) | 37 | – | – | – | – | – | – |
| – | COc1ccc(OC)c(NC(=O)C2Cc3ccccc3N2C(=O)OC(C)(C)C)c1 (stereo not given) | 76 | – | – | – | – | – | – |
| > 100 | Cc1ccccc1NC(=O)C1Cc2ccccc2N1 (stereo not given) | 39 | – | – | – | – | – | – |
| 69.7 | O=C(Nc1ccccc1Cl)C1Cc2ccccc2N1 (stereo not given) | 62 | – | – | – | – | – | – |
| 43.3 | Cc1ccc(NC(=O)C2Cc3ccccc3N2)cc1C (stereo not given) | 87 | – | – | – | – | – | – |
| > 100 | COc1cccc(NC(=O)C2Cc3ccccc3N2C(=O)OC(C)(C)C)c1 (stereo not given) | 38 | – | – | – | – | – | – |
| > 100 | CC(C)(C)OC(=O)N1c2ccccc2CC1C(=O)Nc1ccc(Cl)cc1 (stereo not given) | 31 | – | – | – | – | – | – |
| 62.5 | Cc1ccccc1NC(=O)C1Cc2ccccc2N1C(=O)OC(C)(C)C (stereo not given) | 68 | – | – | – | – | – | – |

| IC50 [1] [µM] | Compound | inhibition [2] [%] | GI50 [3] [µM] | GI50 [4] [µM] | GI50 [5] [µM] | GI50 [6] [µM] | GI50 [7] [µM] | GI50 [8] [µM] |
| --- | --- | --- | --- | --- | --- | --- | --- | --- |
| – | Cc1ccc(NC(=O)C2Cc3ccccc3N2C(=O)OC(C)(C)C)cc1C (stereo not given) | 64 | – | – | – | – | – | – |
| > 100 | COc1ccc(NC(=O)C2Cc3ccccc3N2)cc1OC (stereo not given) | 15 | – | – | – | – | – | – |
| 79.4 | O=C(Nc1ccccc1C(F)(F)F)C1Cc2ccccc2N1 (stereo not given) | 61 | – | – | – | – | – | – |
| 79.2 | O=C(Nc1ccc(C(F)(F)F)cc1)C1Cc2ccccc2N1 (stereo not given) | 56 | – | – | – | – | – | – |
| > 100 | CC(C)(C)OC(=O)N1c2ccccc2CC1C(=O)Nc1ccccc1 (stereo not given) | 30 | – | – | – | – | – | – |
| 70.7 | O=C(Nc1ccc(Cl)cc1)C1Cc2ccccc2N1 (stereo not given) | 62 | – | – | – | – | – | – |
| > 100 | COc1ccc(NC(=O)C2Cc3ccccc3N2C(=O)OC(C)(C)C)cc1 (stereo not given) | 29 | – | – | – | – | – | – |
| 79.2 | COc1ccccc1NC(=O)C1Cc2ccccc2N1 (stereo not given) | 60 | – | – | – | – | – | – |
| 46.5 | O=C(Nc1cc(Cl)cc(Cl)c1)C1Cc2ccccc2N1C(=O)c1ccccc1 (stereo not given) | – | 6.84 | 4.28 | 7.97 | – | 8.26 | 6.42 |
| 14.1 | CC(C)(C)OC(=O)N1c2ccccc2CC1C(=O)Nc1cccc([N+](=O)[O-])c1 (stereo not given) | 94 | – | – | – | – | – | – |
| – | CC(C)(C)OC(=O)N1c2ccccc2CC1C(=O)Nc1cccc(C(F)(F)F)c1 (stereo not given) | > 100 | 3.34 | 6.34 | – | – | – | – |
| 14.5 | CC(C)(C)C(=O)N1c2ccccc2CC1C(=O)Nc1cc(Cl)cc(Cl)c1 (stereo not given) | – | 4.18 | 3.46 | 3.35 | 3.81 | 3.68 | 4.97 |
| 58.7 | CC(C)(C)OC(=O)N1c2ccccc2CC1C(=O)Nc1cccc(O)c1 (stereo not given) | 75 | – | – | – | – | – | – |
| – | O=C(Nc1cc(Cl)cc(Cl)c1)C1Cc2ccccc2N1 (stereo not given) | 98 | 2.53 | 12.3 | – | – | – | – |
| > 100 | O=C(Nc1cccc([N+](=O)[O-])c1)C1Cc2ccccc2N1 (stereo not given) | 49 | – | – | – | – | – | – |
| 12 | O=C(Nc1cc(C(F)(F)F)cc(C(F)(F)F)c1)C1Cc2ccccc2N1 (stereo not given) | 96 | 0.794 | 0.648 | – | – | – | – |
| > 100 | CC(C)(C)OC(=O)N1c2ccccc2CC1C(=O)Nc1ccc(O)cc1 (stereo not given) | 42 | – | – | – | – | – | – |
| – | CC(C)(C)OC(=O)N1c2ccccc2CC1C(=O)Nc1ccccc1Cl (stereo not given) | 50 | – | – | – | – | – | – |
| > 100 | Cc1ccc(S(=O)(=O)N2c3ccccc3CC2C(=O)Nc2ccc(C(F)(F)F)cc2)cc1 (stereo not given) | – | 6.68 | 8.97 | > 10 | > 10 | > 10 | > 10 |
| – | CC(C)(C)OC(=O)N1c2ccccc2CC1C(=O)Nc1ccccc1O (stereo not given) | 93 | – | – | – | – | – | – |
| 10.1 | CC(C)(C)OC(=O)N1c2ccccc2CC1C(=O)Nc1cc(Cl)cc(Cl)c1 (stereo not given) | – | 1.68 | 3.39 | – | – | – | – |
| 12 | CC(C)(C)OC(=O)N1c2ccccc2CC1C(=O)Nc1ccc(C(F)(F)F)cc1 (stereo not given) | > 100 | 2.02 | 3.21 | – | – | – | – |
| > 100 | COc1cc(NC(=O)C2Cc3ccccc3N2)cc(OC)c1 (stereo not given) | 41 | – | – | – | – | – | – |
